ChEMBL document CHEMBL1201862, “PubChem BioAssay data set” (2004)
The source made the active and inactive calls.

How the values were obtained:
Estrogen receptor beta = Estrogen receptor beta (Homo sapiens, UniProt Q92731); experiment: ERβ–SRC-3 coactivator interaction inhibitors, confirmation, orthogonal assay, biochemical, ELISA, streptavidin-HRP readout (AID 1060)
Estrogen receptor = target: T1, Estrogen receptor (Homo sapiens, UniProt P03372);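 further: potency for inhibiting coactivator peptide recruitment to the receptor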
T1 sequence (P03372 whole entry): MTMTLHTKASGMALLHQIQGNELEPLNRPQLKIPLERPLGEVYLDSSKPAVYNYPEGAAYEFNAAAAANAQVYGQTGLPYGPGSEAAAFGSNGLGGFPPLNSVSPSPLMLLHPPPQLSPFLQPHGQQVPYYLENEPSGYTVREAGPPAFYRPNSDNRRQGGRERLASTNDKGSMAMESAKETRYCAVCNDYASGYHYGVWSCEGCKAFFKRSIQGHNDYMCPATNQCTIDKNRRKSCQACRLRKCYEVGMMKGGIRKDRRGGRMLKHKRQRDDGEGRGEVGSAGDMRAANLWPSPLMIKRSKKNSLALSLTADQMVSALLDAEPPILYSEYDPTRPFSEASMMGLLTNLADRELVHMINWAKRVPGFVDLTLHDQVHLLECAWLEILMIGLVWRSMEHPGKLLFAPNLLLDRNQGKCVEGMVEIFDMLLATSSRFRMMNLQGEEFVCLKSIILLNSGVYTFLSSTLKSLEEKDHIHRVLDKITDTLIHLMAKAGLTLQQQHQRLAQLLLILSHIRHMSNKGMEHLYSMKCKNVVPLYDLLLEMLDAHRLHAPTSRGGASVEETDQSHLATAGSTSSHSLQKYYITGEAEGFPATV

[1] = Luminescence Cell-Based Dose Retest to Confirm Inhibitors of Cancer Stem Cells. [Related pubchem assays (depositor defined):AID2717, AID2721]; type: functional, Homo sapiens; details: Homo sapiens
INS1 = experiment: beta cell apoptosis inhibitors, cytokine rescue, dose response, luminescence, retest (AID 449756); type: functional, cell-based; details: Rattus norvegicus;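 further: cell death triggered by IL-1 beta plus TNF-alpha plus IFN-gamma mixture; protective hits raise ATP signal compared with cytokine alone wells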
[2] = target: T2, Carboxy-terminal domain RNA polymerase II polypeptide A small phosphatase 1 (Homo sapiens, UniProt Q9GZU7); experiment: inhibitors of CTDSP1, concentration-response testing, biochemical assay, absorbance-based, actives from ultra-high-throughput screening (AID 540297); type: functional
T2 sequence (Q9GZU7 whole entry): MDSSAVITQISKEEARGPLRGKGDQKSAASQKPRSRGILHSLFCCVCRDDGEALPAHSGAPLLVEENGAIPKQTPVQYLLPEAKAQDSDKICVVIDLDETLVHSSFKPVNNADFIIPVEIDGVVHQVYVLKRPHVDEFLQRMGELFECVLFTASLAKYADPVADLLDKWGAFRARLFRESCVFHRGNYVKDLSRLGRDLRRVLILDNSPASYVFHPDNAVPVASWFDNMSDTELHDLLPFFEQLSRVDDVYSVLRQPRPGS

[3] = target: 5-hydroxytryptamine receptor 2A (Mus musculus, UniProt P35363); type: functional, cell-based;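 further: CHO-K1 cells with tagged receptor and beta-arrestin; agonist potency measured as compound-induced activation of the receptor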
Chain of 5-hydroxytryptamine receptor 2A (P35363 whole entry): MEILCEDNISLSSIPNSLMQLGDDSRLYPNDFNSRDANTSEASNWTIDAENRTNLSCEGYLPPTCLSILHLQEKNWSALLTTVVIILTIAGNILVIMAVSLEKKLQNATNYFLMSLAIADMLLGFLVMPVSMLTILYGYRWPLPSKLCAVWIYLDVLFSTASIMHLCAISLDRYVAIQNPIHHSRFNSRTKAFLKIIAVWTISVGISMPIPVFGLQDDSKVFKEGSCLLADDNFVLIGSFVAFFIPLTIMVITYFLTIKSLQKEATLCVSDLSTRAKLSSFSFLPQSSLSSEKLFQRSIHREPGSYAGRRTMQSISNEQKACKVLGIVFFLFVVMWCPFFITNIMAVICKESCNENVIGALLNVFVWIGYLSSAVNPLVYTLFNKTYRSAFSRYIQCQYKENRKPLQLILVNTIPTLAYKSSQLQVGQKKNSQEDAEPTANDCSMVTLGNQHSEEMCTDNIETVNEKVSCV

[4] = inhibitors of SNCA 5'UTR-driven reporter translation, confirmation, H4 neuroglioma cells, luminescence (AID 1988); type: functional, cell-based
[5] = inhibitors of firefly luciferase expression or activity, dose response, H4 neuroglioma cells, luminescence (AID 1990); type: functional, cell-based
Mu-type opioid receptor = Mu-type opioid receptor (Homo sapiens, UniProt P35372); type: functional, cell-based;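 further: U2OS cells with beta-arrestin recruitment to OPRM1 by beta-gal complementation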
Chain of Mu-type opioid receptor (P35372 whole entry): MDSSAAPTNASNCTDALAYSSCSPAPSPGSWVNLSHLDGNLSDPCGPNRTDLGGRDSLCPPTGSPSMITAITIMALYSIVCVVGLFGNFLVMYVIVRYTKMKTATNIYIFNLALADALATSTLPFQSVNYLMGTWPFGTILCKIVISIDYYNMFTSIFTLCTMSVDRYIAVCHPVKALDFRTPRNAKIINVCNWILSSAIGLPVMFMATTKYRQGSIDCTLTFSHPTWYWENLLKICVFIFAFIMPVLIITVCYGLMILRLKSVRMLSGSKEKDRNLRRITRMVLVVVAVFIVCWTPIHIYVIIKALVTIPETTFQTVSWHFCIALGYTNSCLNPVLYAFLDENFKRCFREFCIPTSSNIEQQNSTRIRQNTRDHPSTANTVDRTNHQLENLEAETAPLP

[6] = Luminescence Cell-Based Dose Response HTS to Identify Inhibitors of 5'UTR Stem-Loop Driven Prion Protein mRNA Translation in H4 Neuroglioblastoma Cells. [Related pubchem assays: 1827 (Project Summary), 1813 (Primary HTS)]; type: functional
[7] = MC4R antagonists, dose response, counter-screen for LGR2 antagonist project, cell-based, plate reader, cherry pick (AID 743444); type: functional;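 further: transfected HEK 293 cells stimulated with alpha-MSH peptide; potency of inhibitors of the alpha-MSH evoked signal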
[8] = HEK293 cell cytotoxicity, dose response, cytotoxicity control, plate reader, cherry-picked samples (AID 743446); type: functional, cell-based
[9] = target: Voltage-dependent T-type calcium channel subunit alpha-1H (Homo sapiens, UniProt O95180); type: functional;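 further: channel activity triggered by adding a high calcium stimulation buffer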
[10] = cytotoxicity in HEK-293T cells, dose response, cytotoxicity control for TCR NF-kB inhibitor project, luminescence, T-cell screen hits (AID 489026); type: functional, cell-based;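 further: cells exposed to compound about 14 hours before the viability readout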
[11] = target: T3, Small ubiquitin-related modifier 1 (Homo sapiens, UniProt P63165); experiment: inhibitors of SUMO1 partner interactions, dose response, biochemical, FRET (AID 624383); type: functional; details: read-out: IC50_Mean
T3 sequence (P63165 whole entry): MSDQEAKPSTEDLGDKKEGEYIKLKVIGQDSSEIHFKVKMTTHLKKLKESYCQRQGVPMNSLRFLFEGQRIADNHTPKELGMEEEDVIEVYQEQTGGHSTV

[12] = target: T3, Small ubiquitin-related modifier 1; experiment: inhibitors of SUMO1 peptide binding, dose response, biochemical, fluorescence polarization, uHTS hits (AID 624382); type: functional; details: read-out: IC50_Mean
[13] = Shn3 3'UTR reporter inhibitors, dose response, cell-based, Clone20 osteoblasts, firefly luciferase, cherry-picked (AID 624132); type: functional;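 further: firefly luciferase luminescence from reporter carrying the Shn3 3'UTR in osteoblasts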
[14] = target: T4, Microphthalmia-associated transcription factor (Homo sapiens, UniProt O75030); experiment: TRPM1 promoter luciferase signal decrease, dose response, MITF inhibitor project, cell-based, SK-MEL-5, cherry-picked, set 3 (AID 493073); type: functional
T4 sequence (O75030 whole entry): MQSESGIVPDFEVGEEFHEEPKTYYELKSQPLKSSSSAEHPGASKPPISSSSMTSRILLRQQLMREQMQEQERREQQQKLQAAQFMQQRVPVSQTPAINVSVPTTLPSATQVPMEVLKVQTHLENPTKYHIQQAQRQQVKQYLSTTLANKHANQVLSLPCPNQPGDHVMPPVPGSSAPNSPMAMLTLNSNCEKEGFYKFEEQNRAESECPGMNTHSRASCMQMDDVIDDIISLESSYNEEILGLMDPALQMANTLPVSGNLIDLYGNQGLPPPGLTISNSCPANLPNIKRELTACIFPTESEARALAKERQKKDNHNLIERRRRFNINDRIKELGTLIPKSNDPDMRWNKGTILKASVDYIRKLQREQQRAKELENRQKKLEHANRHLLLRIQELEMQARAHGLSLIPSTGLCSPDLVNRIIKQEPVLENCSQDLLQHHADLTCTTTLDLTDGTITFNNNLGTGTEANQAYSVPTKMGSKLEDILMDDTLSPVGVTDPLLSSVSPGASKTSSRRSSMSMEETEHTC

[15] = control 3'UTR Renilla luciferase suppression, dose response, counter-screen for Shn3 inhibitor project, cell-based, Clone20-Shn3RL, cherry-picked (AID 624133); type: functional
Nonstructural protein 1 = Nonstructural protein 1 (Influenza A virus, UniProt Q194T2); type: functional, Influenza A virus (A/California/07/2009(H1N1))
Chain of Nonstructural protein 1 (Q194T2 whole entry): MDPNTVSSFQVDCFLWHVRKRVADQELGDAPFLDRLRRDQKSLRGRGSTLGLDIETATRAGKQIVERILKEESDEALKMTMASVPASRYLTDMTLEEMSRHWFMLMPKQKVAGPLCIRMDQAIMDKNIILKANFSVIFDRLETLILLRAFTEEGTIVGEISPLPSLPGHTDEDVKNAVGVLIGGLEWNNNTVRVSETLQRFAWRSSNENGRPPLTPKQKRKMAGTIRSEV

[16] = HepG2 cell cytotoxicity, dose response, cytotoxicity control for Shn3 inhibitor project, CellTiter-Glo, cherry-picked (AID 624134); type: functional, cell-based
[17] = LGR2 antagonists, dose response, cell-based, HEK293, CRE-luciferase reporter, cherry pick, set 2 (AID 743343); type: functional;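 further: transfected cells were stimulated with diluted bursicon conditioned medium after compound addition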
SUMO-activating enzyme [18] = target: T5, SUMO-activating enzyme (Homo sapiens, UniProt Q9UBT2); experiment: SUMOylation inhibitor hit validation, confirmation, SUMOylation inhibitor project, biochemical, AlphaScreen (AID 2018); type: functional
T5 sequence (Q9UBE0 whole entry): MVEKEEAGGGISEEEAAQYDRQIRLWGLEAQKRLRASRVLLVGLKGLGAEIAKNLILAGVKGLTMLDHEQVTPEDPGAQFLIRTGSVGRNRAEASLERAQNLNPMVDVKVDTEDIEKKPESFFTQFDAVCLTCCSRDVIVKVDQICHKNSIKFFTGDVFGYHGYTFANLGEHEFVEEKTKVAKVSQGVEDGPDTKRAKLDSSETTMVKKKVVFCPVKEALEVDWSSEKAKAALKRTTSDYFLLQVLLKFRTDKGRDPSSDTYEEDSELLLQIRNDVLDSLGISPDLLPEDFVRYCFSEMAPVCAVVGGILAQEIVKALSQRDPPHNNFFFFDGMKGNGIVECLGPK
T5 sequence (Q9UBT2 whole entry): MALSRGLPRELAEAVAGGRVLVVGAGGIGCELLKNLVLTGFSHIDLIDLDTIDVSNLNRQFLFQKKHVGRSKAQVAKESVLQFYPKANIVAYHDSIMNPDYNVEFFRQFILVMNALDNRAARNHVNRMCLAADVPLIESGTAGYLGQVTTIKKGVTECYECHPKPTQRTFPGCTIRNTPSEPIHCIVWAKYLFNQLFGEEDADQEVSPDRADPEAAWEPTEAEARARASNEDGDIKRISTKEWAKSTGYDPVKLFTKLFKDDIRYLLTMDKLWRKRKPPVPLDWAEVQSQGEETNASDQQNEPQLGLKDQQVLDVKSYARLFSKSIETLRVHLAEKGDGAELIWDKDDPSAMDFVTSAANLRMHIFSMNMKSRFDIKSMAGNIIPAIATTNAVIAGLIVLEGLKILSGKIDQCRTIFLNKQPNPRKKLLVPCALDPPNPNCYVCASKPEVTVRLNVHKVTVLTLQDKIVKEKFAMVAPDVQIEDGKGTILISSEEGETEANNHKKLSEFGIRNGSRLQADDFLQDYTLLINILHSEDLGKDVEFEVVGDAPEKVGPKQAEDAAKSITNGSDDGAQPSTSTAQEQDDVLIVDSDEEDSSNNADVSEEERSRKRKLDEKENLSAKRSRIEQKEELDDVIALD

SUMO-activating enzyme [19] = target: T5, SUMO-activating enzyme; experiment: inhibitors of in vitro SUMOylation cascade, primary screen, biochemical, HTRF, uHTS (AID 2006); type: protein-complex assay
Aminopeptidase N = target: T6, Aminopeptidase N (Plasmodium falciparum FcB1/Columbia, UniProt O96935); experiment: P. falciparum M1AAP inhibitors, biochemical, fluorogenic H-Leu-NHMec substrate, 1536-well (AID 1445); set-up: species or system Plasmodium falciparum 3D7, 3D7
T6 sequence (O96935 whole entry): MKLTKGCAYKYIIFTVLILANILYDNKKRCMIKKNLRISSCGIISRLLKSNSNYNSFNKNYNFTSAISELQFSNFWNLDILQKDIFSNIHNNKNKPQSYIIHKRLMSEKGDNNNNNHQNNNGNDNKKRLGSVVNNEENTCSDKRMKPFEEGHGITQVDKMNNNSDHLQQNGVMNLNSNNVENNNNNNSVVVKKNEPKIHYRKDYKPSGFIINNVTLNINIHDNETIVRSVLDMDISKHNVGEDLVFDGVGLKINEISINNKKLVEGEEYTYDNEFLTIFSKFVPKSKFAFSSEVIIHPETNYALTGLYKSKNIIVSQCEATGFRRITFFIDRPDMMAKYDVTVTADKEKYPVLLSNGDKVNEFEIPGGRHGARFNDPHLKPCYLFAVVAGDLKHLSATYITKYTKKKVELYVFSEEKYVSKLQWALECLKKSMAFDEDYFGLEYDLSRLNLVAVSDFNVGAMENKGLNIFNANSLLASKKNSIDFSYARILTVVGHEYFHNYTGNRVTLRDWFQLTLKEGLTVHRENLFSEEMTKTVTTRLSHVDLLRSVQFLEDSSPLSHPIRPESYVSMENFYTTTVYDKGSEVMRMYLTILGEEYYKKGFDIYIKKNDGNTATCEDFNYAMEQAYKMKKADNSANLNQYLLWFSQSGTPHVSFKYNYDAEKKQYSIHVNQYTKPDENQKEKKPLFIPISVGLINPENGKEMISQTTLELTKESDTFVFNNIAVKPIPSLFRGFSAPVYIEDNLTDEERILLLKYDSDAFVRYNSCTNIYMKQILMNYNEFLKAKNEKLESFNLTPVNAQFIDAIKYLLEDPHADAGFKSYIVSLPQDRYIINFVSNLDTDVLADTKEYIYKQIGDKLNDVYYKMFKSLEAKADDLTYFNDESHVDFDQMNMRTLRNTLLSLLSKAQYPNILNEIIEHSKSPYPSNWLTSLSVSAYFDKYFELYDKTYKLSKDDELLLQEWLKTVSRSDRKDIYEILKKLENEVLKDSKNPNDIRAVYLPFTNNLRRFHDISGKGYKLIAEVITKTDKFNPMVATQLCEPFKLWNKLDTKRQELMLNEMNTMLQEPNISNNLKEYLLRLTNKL

[20] = HepG2 cell cytotoxicity, dose response, cytotoxicity control, cherry-picked samples (AID 1159577); type: functional, cell-based
[21] = P. falciparum Dd2 growth inhibitors, dose response, SYBR Green, cherry-picked samples (AID 1159567); type: functional, cell-based

Chain of Estrogen receptor beta (Q92731 whole entry): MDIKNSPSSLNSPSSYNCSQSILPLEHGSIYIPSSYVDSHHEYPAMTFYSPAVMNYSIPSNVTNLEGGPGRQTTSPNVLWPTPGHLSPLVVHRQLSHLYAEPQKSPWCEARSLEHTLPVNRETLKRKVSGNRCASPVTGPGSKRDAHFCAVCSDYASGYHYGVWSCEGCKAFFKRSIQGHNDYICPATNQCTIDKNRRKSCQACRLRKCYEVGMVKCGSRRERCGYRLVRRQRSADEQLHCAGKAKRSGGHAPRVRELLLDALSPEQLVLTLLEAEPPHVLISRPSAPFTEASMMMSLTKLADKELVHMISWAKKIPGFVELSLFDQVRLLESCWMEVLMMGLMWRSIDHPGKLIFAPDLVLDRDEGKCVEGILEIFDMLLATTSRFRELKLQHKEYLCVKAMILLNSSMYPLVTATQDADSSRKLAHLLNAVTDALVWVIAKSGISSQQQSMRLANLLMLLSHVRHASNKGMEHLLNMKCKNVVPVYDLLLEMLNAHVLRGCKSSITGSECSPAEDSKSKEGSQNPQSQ

O=C(c1ccc(CS(=O)(=O)c2ccccc2)o1)N1CCC2(CC1)OCCO2
IC50 (Estrogen receptor beta): 4.05 µM (not active)

C=CCn1c(COc2cccc(C)c2)nnc1SCC(=O)NC(=O)NCc1ccco1
IC50 (Estrogen receptor): 14.8 µM (active)

Nc1ccccc1N/C=C1\C(=O)NC(=O)N(CCC2=CCCCC2)C1=O
AC50 [1]: 81.2 µM (active)
AC50 (INS1): 28.2 µM (active)
IC50 (Estrogen receptor): > 50 µM (not active)

Cc1ccccc1CSCC(=O)NC(=O)NCc1ccco1
IC50 (Estrogen receptor): 9.27 µM (active)
IC50 [2]: 10.4 µM (active)

Cc1cccc(OCC(O)CN2CCN(c3ccccn3)CC2)c1C (configuration not stated)
EC50 [3]: 25.4 µM (inactive)
EC50 [4]: > 120 µM (not active)
EC50 [5]: > 120 µM (not active)
EC50 (Mu-type opioid receptor): 92.5 µM (inactive)
EC50 [6]: > 120 µM (not active)

CN(c1ccccc1)S(=O)(=O)c1cccc(NC(=O)c2cc(=O)c3ccccc3o2)c1
AC50 [7]: 38.2 µM (active)
AC50 [8]: > 52 µM (inactive)

COc1cccc(CNC(=O)CSCc2cnn(-c3ccccc3)c2-n2cccc2)c1
EC50 [9]: 3.66 µM (active)

COc1ccc(CN2CCN(C(=O)c3ccco3)CC2)cc1
EC50 [3]: 1.53 µM (active)
EC50 (Mu-type opioid receptor): 92.5 µM (inactive)

COc1cc(-c2noc(C)c2/C=C/c2cccc([N+](=O)[O-])c2)cc(OC)c1OC
IC50 [10]: 68.5 µM (inactive)

O=C(c1ccco1)N1CCN(Cc2ccccc2F)CC1
EC50 [3]: 7.48 µM (active)
EC50 (Mu-type opioid receptor): 92.5 µM (inactive)

O=C(COC(=O)c1ccc(Cl)c(S(=O)(=O)N2CCOCC2)c1)Nc1ccc2[nH]c(O)nc2c1
IC50 [11]: 15.8 µM (active)
IC50 [12]: > 66.6 µM (inactive)

O=C(Nc1ccncc1)C1CCCN(S(=O)(=O)c2cccc3cccnc23)C1 (configuration not stated)
IC50 [10]: 67.5 µM (inactive)

O=C(Nc1nc(-c2ccccn2)cs1)c1ccc(F)c(S(=O)(=O)N2CCOCC2)c1
AC50 (INS1): 1.59 µM (active)
AC50 [13]: 1.32 µM (active)
AC50 [14]: 5.7 µM (active)
AC50 [15]: 0.711 µM (active)
IC50 (Nonstructural protein 1): 7.88 µM (active)
AC50 [16]: > 70 µM (inactive)

O=C(O)c1cc(-c2ccco2)nn1-c1cccc(Cl)c1
IC50 [11]: 27.1 µM (inactive)
IC50 [12]: > 66.6 µM (inactive)
IC50 [2]: 5.39 µM (active)

Cn1cccc1C(=O)OCC(=O)Nc1ccc2c(c1)OCCO2
AC50 [7]: 14.8 µM (active)
AC50 [17]: 11.3 µM (active)

O=C(Nc1ccc(N2CCOCC2)cc1)c1ccc(Cl)c(S(=O)(=O)N2CCCCC2)c1
IC50 [10]: > 80 µM (inactive)
AC50 [13]: 0.81 µM (active)
AC50 [15]: 1.58 µM (active)
AC50 [16]: 1.18 µM (active)

COc1cccc(N2CCN(C(=O)c3cn(Cc4ccccc4)nc3-c3cccnc3)CC2)c1
IC50 [10]: > 80 µM (inactive)

COc1ccc2[nH]c3c(=O)n(CCCC(=O)NC4CCC(C)CC4)c(=S)[nH]c3c2c1 (configuration not stated)
IC50 (SUMO-activating enzyme [18]): 38.1 µM (active)
IC50 (SUMO-activating enzyme [19]): 22.7 µM (active)

O=C(N/N=C(\Cc1ncc[nH]1)c1ccccc1)c1ccncc1
AC50 [1]: 3.42 µM (active)
IC50 (Aminopeptidase N): 21.4 µM (active)
AC50 (INS1): 7.38 µM (active)
IC50 (Nonstructural protein 1): 2.46 µM (active)

COc1ccccc1C#Cc1ccc([C@@H]2[C@@H](CO)N(C(=O)C3CCCC3)[C@H]2C#N)cc1
AC50 [20]: > 39 µM (inactive)
AC50 [21]: 4.57 µM (active)

COc1ccc(C#Cc2ccc([C@H]3[C@@H](CO)N4CCCCN(Cc5ccncc5)C[C@H]34)cc2)cc1
AC50 [20]: 10.7 µM (active)
AC50 [21]: 1.87 µM (active)

O=C1C2CCCN2C(=O)N1CCCCN1CCN(c2ccccc2)CC1 (configuration not stated)
EC50 [3]: 2.81 µM (active)
EC50 (Mu-type opioid receptor): 92.4 µM (inactive)

CCOC(=O)[N-]c1cn(N2CCOCC2)n[o+]1 [MOLSIDOMINE]
IC50 (Estrogen receptor): 24.7 µM (active)
